Assay results from patent US9943507B2, “Treatment of pancreatic and related cancers with 5-acyl-6,7-dihydrothieno[3,2-c]pyridines” (Memorial Sloan-Kettering Cancer Center, priority 2012, dated 2018).

How the values were obtained:
Hhat [1] = molecular target: T1, Hhat (Homo sapiens, UniProt Q5VTY9); test: Hhat activity assay (SPA, P100 membranes from HA-Hhat transfected 293FT cells); type: biochemical; conditions: 12.5 μM compound, 125I-iodo-palmitoylCoA, Shh biotinylated peptide
T1 construct: expressed in transfected cells; host or cells: 293FT cells (P100 membrane fraction)
Description: Hhat activity assay: Five μl of 10 mM MES, pH 6.5 buffer was dispensed within each well of a 384-well white/clear-bottom plate (Greiner Bio-One, Kremsmuenster, Austria) using a Thermo Multi-Drop Combi dispenser. […] Percent inhibition for each experimental point was determined by the formula: [(high control−compound)/(high control−low control)]*100.

[2] = test system: AsPC1 (human pancreatic adenocarcinoma) cells; test: Human pancreatic adenocarcinoma cell assay; type: cell-based; conditions: day six, FIG. 3
Description: Human pancreatic adenocarcinoma cell assay: 5000 AsPC1 (human pancreatic adenocarcinoma) cells were plated in each well of a 384-well black/clear-bottom tissue culture plate (Greiner Bio-One, Kremsmuenster, Austria), using Thermo Multi-Drop Combi dispenser. The plates were incubated at 37° C. for 24 h before compounds were dispensed using a Janus “Varispan” automated syringe pipette at 50 μM final concentration. High control (DMSO only) and low control (cell media only) rows were included in each plate. After 48 h incubation, Alamar Blue (Invitrogen) was added to each well in 1:100 ratio. 4 h later, cell viability was assessed by measuring fluorescence on a Perkin-Elmer EnVision plate reader.
Compound 13 was tested in the human pancreatic adenocarcinoma cell assay. The results are shown graphically in FIG. 3. At 10 μM it reduced the proliferation of human pancreatic cancer cells 50% at day six. At 20 μM it reduced the proliferation of human pancreatic cancer cells by 70% at day six.

Hhat [3] = molecular target: T1, Hhat; test: In vitro Hhat activity assay with purified enzyme and ShhN recombinant protein (IC50); type: biochemical; conditions: saturating substrate; purified enzyme, 0.7 μM ShhN recombinant protein, 18 μM 125I-iodo-palmitoylCoA
Description: Expression and purification of recombinant Shh were carried out as described in Buglino, J. A. and Resh, M. D. “Hhat is a palmitoylacyl transferase with specificity for N-palmitoylation of sonic hedgehog”. J. Biol. Chem. 283, 22076-22088 (2008) and Buglino, J. A. and Resh, M. D. “Identification of conserved regions and residues within Hedgehog acyltransferase critical for palmitoylation of Sonic Hedgehog”. PLoS One 5, e11195 (2010). N-terminally 6×His tagged human Shh 24-197 with an enterokinase cleavage site immediately upstream of residue 24 was amplified using full length Shh as a template. The purified PCR product was ligated in NcoI and BamHI cut PET19b (Novagen). C24S and C24A constructs were generated by site directed mutagenesis using the Quick Change mutagenesis kit. All mutations were confirmed by sequencing. […] Protein concentration was measured using the DC protein assay (BioRad). […]
HhatHAFlagHis was purified as follows. […] Protein concentrations were determined using the DC Protein Assay. The concentration of the final Flag eluate was determined from the absorbance at 280 nm using an extinction coefficient of 193045 cm^−1M^−1. […]

T1 sequence (Q5VTY9 whole entry): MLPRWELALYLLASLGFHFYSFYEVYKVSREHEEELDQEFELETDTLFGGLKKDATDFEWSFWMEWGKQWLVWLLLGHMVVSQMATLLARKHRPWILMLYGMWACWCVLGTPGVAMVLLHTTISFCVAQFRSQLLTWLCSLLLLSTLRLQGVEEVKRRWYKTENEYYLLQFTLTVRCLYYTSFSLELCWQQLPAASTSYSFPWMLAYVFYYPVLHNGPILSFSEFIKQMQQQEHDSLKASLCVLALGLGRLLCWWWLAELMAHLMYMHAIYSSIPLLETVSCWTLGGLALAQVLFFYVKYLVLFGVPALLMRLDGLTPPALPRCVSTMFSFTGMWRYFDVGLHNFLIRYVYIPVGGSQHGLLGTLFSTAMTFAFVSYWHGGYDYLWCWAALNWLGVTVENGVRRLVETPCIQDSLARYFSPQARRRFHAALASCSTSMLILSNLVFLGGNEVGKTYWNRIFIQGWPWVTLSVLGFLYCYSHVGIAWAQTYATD

| inhibition at 12.5 µM (Hhat [1]) [%] | IC50 (Hhat [3]) [µM] | Structure (SMILES) | reduction of proliferation of human pancreatic cancer cells ([2]; 10 μM) [%] | reduction of proliferation of human pancreatic cancer cells ([2]; 20 μM) [%] |
| --- | --- | --- | --- | --- |
| 95.6 |  | C=CCNCC(=O)N1CCc2sccc2C1c1ccccc1 (centres unmarked) [Example 5] |  |  |
|  | 2.05 | CCC(C)CNCC(=O)N1CCc2sccc2C1c1cccc(C)c1 (centres unmarked) [Example 13] | 50 | 70 |
|  | 0.68 | CCC(C)CNCC(=O)N1CCc2sccc2C1c1cccc(C)n1 (centres unmarked) [Example 14] |  |  |
